Laboratory results taken from PMC4503722, “Novel Phenotypic Outcomes Identified for a Public Collection of Approved Drugs from a Publicly Accessible Panel of Assays” (PLoS ONE, 2015).
Like-named read-outs stand apart in the source and are kept apart here.

Key:
[1] = tested on: STC-1 cell line; format: cell-based, mouse
[2] = tested on: endothelial tube formation in co-cultures of ECFCs and ADSCs treated with VEGF; experiment: cells; format: cell-based, human
[3] = tested on: NCI-H716 cells; experiment: cells; format: cell-based, Human
[4] = tested on: ECFC/ADSC co-culture cell nuclei number
[5] = tested on: HeLa cells; experiment: cells; format: cell-based
[6] = tested on: DLD-1; experiment: cells; format: cell-based
[7] = tested on: HCT116; experiment: cells; format: cell-based
[8] = tested on: SW480; experiment: cells; format: cell-based
[9] = tested on: Colo320; experiment: cells; format: cell-based
[10] = tested on: RKO; experiment: cells; format: cell-based
[11] = tested on: SNU-C1; experiment: cells; format: cell-based
[12] = tested on: HT-29; experiment: cells; format: cell-based
[13] = tested on: HCT116 cells treated with a GSK3β inhibitor; experiment: cells; format: cell-based; settings: assay number 26; GSK3b inhibitor pretreated

O=C(O)C[CH2][Ge](=[O])[O][Ge](=[O])[CH2]CC(=O)O [NCGC00164525-02]
mSTC-1 GLP1 Secretion IC50/EC50 ([1]; assay number 13): 0.7932 µM
VEGF_ADSC\ECFC Angio CD31 TubeArea IC50/EC50 [2]: 0.1546 µM
hNCI-H716 GLP1 Secretion IC50/EC50 ([3]; assay number 12): 1.5271 µM
VEGF_ADSC\ECFC Angio Hoechst NucArea IC50/EC50 [4]: 0.2606 µM
Hela CellCycMod PI 2N IC50/EC50 ([5]; assay number 14, 2N): > 10 µM
Hela CellCycMod PI S Phase IC50/EC50 ([5]; assay number 15, S phase): > 10 µM
Hela CellCycMod PI 4N IC50/EC50 ([5]; assay number 16, 4N): > 10 µM
Hela CellCycMod PI MI IC50/EC50 ([5]; assay number 17, MI): > 10 µM
Hela CellCycMod PI Cell Number IC50/EC50 ([5]; assay number 18, cell number): 0.5034 µM

C[n+]1cc2c3c(ccc2c2ccc4cc5c(cc4c21)OCO5)OCO3 [NCGC00015959-09]
mSTC-1 GLP1 Secretion IC50/EC50 [1]: > 40 µM
Basal_Viability ATP DLD-1 IC50/EC50 [6]: 0.5755 µM
Basal_Viability ATP HCT116 IC50/EC50 [7]: 0.5253 µM
VEGF_ADSC\ECFC Angio CD31 TubeArea IC50/EC50 [2]: 0.5372 µM
hNCI-H716 GLP1 Secretion IC50/EC50 [3]: > 40 µM
VEGF_ADSC\ECFC Angio Hoechst NucArea IC50/EC50 [4]: 0.9705 µM
Basal_Viability ATP SW480 IC50/EC50 [8]: 0.3789 µM
Basal_Viability ATP Colo 320 IC50/EC50 [9]: 0.3498 µM
Basal_Viability ATP RKO IC50/EC50 [10]: 0.2646 µM
Basal_Viability ATP SNU-C1 IC50/EC50 [11]: 0.3161 µM

CC1=C(C(=O)OC(C)C)C(c2cccc([N+](=O)[O-])c2)C(C(=O)OC2CN(C(c3ccccc3)c3ccccc3)C2)=C(N)N1 (stereo not drawn) [NCGC00167436-02]
mSTC-1 GLP1 Secretion IC50/EC50 ([1]; assay number 13): 1.234 µM
VEGF_ADSC\ECFC Angio CD31 TubeArea IC50/EC50 [2]: 3.5833 µM
hNCI-H716 GLP1 Secretion IC50/EC50 ([3]; assay number 12): 12.7519 µM
VEGF_ADSC\ECFC Angio Hoechst NucArea IC50/EC50 [4]: 7.394 µM

Clc1ccc(CO/N=C(\Cn2ccnc2)c2ccc(Cl)cc2Cl)c(Cl)c1.O=[N+]([O-])O [NCGC00177980-03]
mSTC-1 GLP1 Secretion IC50/EC50 ([1]; assay number 13): > 40 µM
VEGF_ADSC\ECFC Angio CD31 TubeArea IC50/EC50 [2]: > 10 µM
hNCI-H716 GLP1 Secretion IC50/EC50 ([3]; assay number 12): > 40 µM
VEGF_ADSC\ECFC Angio Hoechst NucArea IC50/EC50 [4]: 8.846 µM

OC1(c2ccc(Cl)c(C(F)(F)F)c2)CCN(CCCC(c2ccc(F)cc2)c2ccc(F)cc2)CC1 [NCGC00165865-02]
mSTC-1 GLP1 Secretion IC50/EC50 ([1]; assay number 13): > 40 µM
Basal_Viability ATP DLD-1 IC50/EC50 ([6]; assay number 23, basal): 1.1393 µM
Basal_Viability ATP HCT116 IC50/EC50 ([7]; assay number 25, basal): 1.853 µM
Basal_Viability ATP HT-29 IC50/EC50 ([12]; assay number 28, basal): 0.9459 µM
hNCI-H716 GLP1 Secretion IC50/EC50 ([3]; assay number 12): 8.448 µM
Basal_Viability ATP Colo 320 IC50/EC50 ([9]; assay number 27, basal): 0.9617 µM
Basal_Viability ATP RKO IC50/EC50 ([10]; assay number 29, basal): 0.9712 µM
Basal_Viability ATP SNU-C1 IC50/EC50 ([11]; assay number 30, basal): 0.1675 µM

Clc1ccc(CSC(Cn2ccnc2)c2ccc(Cl)cc2Cl)cc1.O=[N+]([O-])O (stereo not drawn) [NCGC00018250-06]
mSTC-1 GLP1 Secretion IC50/EC50 ([1]; assay number 13): > 40 µM
VEGF_ADSC\ECFC Angio CD31 TubeArea IC50/EC50 [2]: 2.1282 µM
hNCI-H716 GLP1 Secretion IC50/EC50 ([3]; assay number 12): 20.9915 µM
VEGF_ADSC\ECFC Angio Hoechst NucArea IC50/EC50 [4]: 8.757 µM

C[C@@H]1CN(CCCn2c3ccccc3c3ccccc32)C[C@H](C)N1 [NCGC00025187-02]
mSTC-1 GLP1 Secretion IC50/EC50 ([1]; assay number 13): > 40 µM
Basal_Viability ATP DLD-1 IC50/EC50 ([6]; assay number 23, basal): 9.7994 µM
Basal_Viability ATP HCT116 IC50/EC50 ([7]; assay number 25, basal): 10.5492 µM
Basal_Viability ATP HT-29 IC50/EC50 ([12]; assay number 28, basal): 4.021 µM
hNCI-H716 GLP1 Secretion IC50/EC50 ([3]; assay number 12): 6.3711 µM
Basal_Viability ATP SW480 IC50/EC50 ([8]; assay number 24, basal): 2.353 µM
Basal_Viability ATP Colo 320 IC50/EC50 ([9]; assay number 27, basal): 15.9001 µM
GSK3b inh pretreated_Viability ATP HCT116 IC50/EC50 [13]: 3.848 µM
Basal_Viability ATP RKO IC50/EC50 ([10]; assay number 29, basal): 2.184 µM
Basal_Viability ATP SNU-C1 IC50/EC50 ([11]; assay number 30, basal): 6.023 µM

O=C(Nc1ccc(Oc2ccc(Cl)cc2)c(Cl)c1)c1cc(I)cc(I)c1O [NCGC00160556-02]
mSTC-1 GLP1 Secretion IC50/EC50 [1]: 1.3019 µM
Basal_Viability ATP DLD-1 IC50/EC50 [6]: 0.0084 µM
Basal_Viability ATP HCT116 IC50/EC50 [7]: 0.01695 µM
VEGF_ADSC\ECFC Angio CD31 TubeArea IC50/EC50 [2]: > 10 µM
Basal_Viability ATP HT-29 IC50/EC50 [12]: 0.0095 µM
hNCI-H716 GLP1 Secretion IC50/EC50 [3]: > 40 µM
VEGF_ADSC\ECFC Angio Hoechst NucArea IC50/EC50 [4]: 6.571 µM
Basal_Viability ATP SW480 IC50/EC50 [8]: 0.0108 µM
Basal_Viability ATP Colo 320 IC50/EC50 [9]: 0.054 µM
Basal_Viability ATP RKO IC50/EC50 [10]: 0.0303 µM
Basal_Viability ATP SNU-C1 IC50/EC50 [11]: 0.0143 µM

Clc1ccc(C(Cn2ccnc2)OCc2c(Cl)cccc2Cl)c(Cl)c1 (stereo not drawn) [NCGC00179642-03]
mSTC-1 GLP1 Secretion IC50/EC50 ([1]; assay number 13): > 40 µM
Basal_Viability ATP DLD-1 IC50/EC50 ([6]; assay number 23): 2.3554 µM
Basal_Viability ATP HCT116 IC50/EC50 ([7]; assay number 25, basal): 1.5939 µM
Basal_Viability ATP HT-29 IC50/EC50 ([12]; assay number 28): 5.0032 µM
hNCI-H716 GLP1 Secretion IC50/EC50 ([3]; assay number 12): > 40 µM
Basal_Viability ATP SW480 IC50/EC50 ([8]; assay number 24): 2.6011 µM
Basal_Viability ATP Colo 320 IC50/EC50 ([9]; assay number 27): 1.8168 µM
GSK3b inh pretreated_Viability ATP HCT116 IC50/EC50 [13]: 1.3984 µM
Basal_Viability ATP RKO IC50/EC50 ([10]; assay number 29): 4.0107 µM
Basal_Viability ATP SNU-C1 IC50/EC50 ([11]; assay number 30): 0.8861 µM

COc1cc2nc(N3CCN(C(=O)C4COc5ccccc5O4)CC3)nc(N)c2cc1OC.CS(=O)(=O)O (stereo not drawn) [NCGC00018158-09]
mSTC-1 GLP1 Secretion IC50/EC50 ([1]; assay number 13): 10.6547 µM
VEGF_ADSC\ECFC Angio CD31 TubeArea IC50/EC50 [2]: > 10 µM
hNCI-H716 GLP1 Secretion IC50/EC50 ([3]; assay number 12): > 40 µM
VEGF_ADSC\ECFC Angio Hoechst NucArea IC50/EC50 [4]: > 10 µM

[O-][S+](c1cc(Cl)cc(Cl)c1O)c1cc(Cl)cc(Cl)c1O [NCGC00160554-02]
mSTC-1 GLP1 Secretion IC50/EC50 ([1]; assay number 13): > 40 µM
VEGF_ADSC\ECFC Angio CD31 TubeArea IC50/EC50 [2]: > 10 µM
hNCI-H716 GLP1 Secretion IC50/EC50 ([3]; assay number 12): 19.7164 µM
VEGF_ADSC\ECFC Angio Hoechst NucArea IC50/EC50 [4]: > 10 µM
